Experimental data published in patent publication US20060210568A1, “Methods and compositions for cancer treatment” (priority 2003, published 2006).

Experiments:
[1] = test system: ADRP expression in adipocytes; details: cited from earlier work
EV MCF-7 cells = experiment: proliferation assay, EV MCF-7 control cells; format: cell-based, human; details: estradiol 10^−9 M, insulin 10 microgramsg/ml, EGF 25 ng/ml in medium
Protocol: For proliferation assay, the cells were seeded at a density of 5×10^4 cells in phenol red-free α-MEM (PFME) supplemented with 5% of charcoal extracted fetal bovine serum (CHX-FBS) in 6-well culture plates (Costar). Cells were treated with 1 nM 17β-estradiol alone. Control cells were treated with vehicle alone (0.01% DMSO). Cell numbers were counted by hemacytometer every two days. Medium was changed at day 4. Each time point was performed in triplicate. Specifically, the medium contained estradiol (E2 at 10^−9 M), insulin (10 microgramsg/ml) and epidermal growth factor (EGF at 25 ng/ml).

[2] = test system: ADRP overexpressing cells (MCF7-C4); experiment: proliferation assay, ADRP overexpressing MCF-7 cells; format: cell-based, human; details: estradiol 10^−9 M, insulin 10 microgramsg/ml, EGF 25 ng/ml in medium
Protocol: The vector used to over-express ADRP in MCF-7 cells is the ADRP-pcDNA3 vector described in Gao and Serrero, 1999. The G418 resistance gene was used as selectable marker. MCF-7 cells were transfected with the ADRP-pcDNA3 plasmid, using the lipofectamine method. Specifically, MCF-7 cells (WT) were plated onto 60-mm dish at the concentration of 2×10^5 cell per plate in 5% fetal bovine serum (FBS) in DMEM/F12 (1:1 mixture of Dulbecco's modified Eagle's medium and Ham' nutrient F12 medium) overnight before transfection. Cells were washed once with serum-free DMEM/F12 (without antibiotic). The lipofectamine method was used for the transfection. Specifically, 2 μg mouse ADRP pcDNA3 construct was used. Transfection was carried on according to manufacturer's recommendations, with 15 μl of lipofectamine and 5 hours of incubation. After transfection, the medium was replaced with 5% FBS DMEM/F12 and the cells were incubated overnight. G418 at the concentration of 800 μg/ml was added the day after for selection. Cells were selected with this medium for 3 weeks. Six clones were isolated and subjected to RT-PCR to determine the existence of the transfection construct. For proliferation assay, the cells were seeded at a density of 5×10^4 cells in phenol red-free α-MEM (PFME) supplemented with 5% of charcoal extracted fetal bovine serum (CHX-FBS) in 6-well culture plates (Costar). Cells were treated with 1 nM 17β-estradiol alone. Control cells were treated with vehicle alone (0.01% DMSO). Cell numbers were counted by hemacytometer every two days. Medium was changed at day 4. Each time point was performed in triplicate. Specifically, the medium contained estradiol (E2 at 10^−9 M), insulin (10 microgramsg/ml) and epidermal growth factor (EGF at 25 ng/ml).

[3] = test system: ADRP expression in MCF-7 cells; experiment: ADRP expression in MCF-7 cells (RT-PCR); format: cell-based, human; details: for increase of ADRP level over the endogenous level: treatment of cells, depends on length of treatment
Excerpt: Ciglitazone is known to bind and activate the nuclear receptor PPAR gamma, which has been shown in MCF-7 to stimulate expression of beta casein (Mueller et al., 1998).
It is known that estradiol plays a dual role in mammary epithelial cells as a stimulator of proliferation and also as a differentiation factor at different times of the developmental stages of mammary gland development (Kumar et al, 2000).
A specific siRNA against human ADRP mRNA (hADRP-siRNA) was designed using the sequence between +225 to +244 of human ADRP as a target. A control siRNA was designed using a portion of the green fluorescence protein gene. Twenty-one-oligonucleotide RNA for hADRP (rArUrU rGrCrA rGrUrU rGrCrC rArArU rArCrC rUTT and rArGrG rUrArU rUrGrG rCrArA rCrUrG rCrArA rUTT) with 3′dTdT overhangs, and for GFP (rGrGrC rUrArC rGrUrC rCrArG rGrArG rCrGrC rArCrC and rUrGrC rGrCrU rCrCrU rGrGrA rCrGrU rArGrC rCrUrU) were synthesized (Integrated DNA Technologies, Inc., Coralville, Iowa). Transfection of siRNA duplex was performed in MCF-7 cells using LipofectAMINE 2000 reagents as described by the manufacturer (Invitrogen, Carlsbad, Calif.). MCF-7 EV grown to 50% confluency in 6-well plates were transfected with 100 pmole of siRNA per well in serum free-DMEM/F12. After 5 h, the medium was replaced with DMEM/F12 containing 5% FBS. Control MCF-7 cells were treated with GFP siRNA. The cells were then treated with 50 μM (50 micromolars) ciglitazone. After 48 h of incubation, RNA samples were collected by Trizol method to measure human ADRP expression and beta casein expression by RT-PCR as described above.

## CC(C)Cc1ccc(C(C)C(=O)O)cc1 (centres unmarked) [ibuprofen]
[1]
  ADRP expression in adipocytes: stimulated

## insulin: hormone known to stimulate the proliferation of mammary epithelial cells
EV MCF-7 cells
  proliferation of EV MCF-7 cells (control): stimulated the proliferation
[2]
  proliferation of ADRP overexpressing cells: no effect

## C[C@]12CC[C@@H]3c4ccc(O)cc4CC[C@H]3[C@@H]1CC[C@@H]2O [estradiol, 17β-estradiol, reference compound]
EV MCF-7 cells
  proliferation of EV MCF-7 cells (control): stimulated the proliferation
[3]; MCF-7 cells, FIG. 7
  ADRP expression: stimulates ADRP expression
[3]
  increase of ADRP level over the endogenous level: 2-3 fold
[2]
  proliferation of ADRP overexpressing cells: no effect

## epidermal growth factor: growth factor known to stimulate the proliferation of mammary epithelial cells
EV MCF-7 cells
  proliferation of EV MCF-7 cells (control): stimulated the proliferation
[2]
  proliferation of ADRP overexpressing cells: no effect

## CC1(COc2ccc(CC3SC(=O)NC3=O)cc2)CCCCC1 (centres unmarked) [ciglitazone]
[3]
  increase of ADRP level over the endogenous level: over 10 fold

## COc1ccc2c(c1)c(CC(=O)O)c(C)n2C(=O)c1ccc(Cl)cc1 [indomethacin]
[1]
  ADRP expression in adipocytes: stimulated
